# Data reported in patent US7129381B2, “Glucopyranosyloxybenzylbenzene derivatives, medicinal compositions containing the same and intermediates in the production thereof” (Kissei Pharmaceutical Co., Ltd., priority 2000, dated 2006).
# Test system: ICR mice
# Assay: Acute toxicity test
# Format: in vivo
# Settings: 300 mg/kg subcutaneous, male ICR mice, 5 animals, observation for 24 hours
# Method: A mixture (saline:polyethylene glycol 400:ethanol =5:4:1) was added to a test compound to prepare 30 mg/mL solution. As experimental animals, 5 week old male ICR mice (CLEA JAPAN, INC. 29–35 g, 5 animals in each group), which were fasted for 4 hours, were used. The above solution was subcutaneously administered at a dose of 10 mL/kg (300 mg/kg) to the above experimental animals and then observation for 24 hours was performed.
structure (smiles),measurement,value
"COc1ccc(Cc2c(C)cc(C)cc2O[C@@H]2O[C@H](CO)[C@@H](O)[C@H](O)[C@H]2O)cc1 [Example 37, 2-(4-Methoxybenzyl)-3,5-dimethylphenyl β-D-glucopyranoside]",Death number,0/5
